The text below walks through data of patent publication US12692249B2, “WDR5 inhibitors and modulators” (Vanderbilt University, priority 2019, dated 2026).

Assay [1] concerns MV4:11 human cancer cell lines. The assay is described as follows: Cellular viability / anti-proliferative assay, CellTiter-Glo, 5 day protocol. In kind it is cell-based. To be noted: Homo sapiens, MV4-11, 120 h, read-out: GI50 on cellular proliferation of MV4:11 human cancer cell lines. In outline: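 MV-4-11 cells in IMDM with 10% FBS, 200 cells/well, exposed 5 days to 22 two-fold dilutions from 30 μM, final DMSO 0.3%. Viability read by CellTiter-Glo luminescence; GI50 from sigmoidal dose-response fit, mean of at least two replicates.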
Background: Cellular ATP, detected with luciferase, serves as a proxy for viable cell number.

In assay [2] the target is WDR5 (Homo sapiens, UniProt P61964). The assay is described as follows: TR-FRET competition binding assay, displacement of 10mer-Thr-FAM MLL peptide probe from His-tagged WDR5. As to conditions: WDR5-His tag (residues 24-334) 2 nM; 10mer-Thr-FAM 150 nM; 60 min, room temperature; read-out: Ki for Inhibition of WDR5 by TR-FRET assay. On the technique in general: In TR-FRET formats the signal depends on donor and acceptor labels being close together.

[3] abbreviates: MV4:11 cells, 5 day incubation, CellTiter-Glo, mean of at least two replicates.

Read-outs that look alike come from different tables or passages of the source.

For `CCc1nc2cccc(N3CCc4c(cc(Cn5ccnc5)cc4-c4cn(C)nc4C(F)(F)F)C3=O)c2cc1C` [Example 119, 7-((1H-Imidazol-1-yl)methyl)-2-(2-ethyl-3-methylquinolin-5-yl)-5-(1-methyl-3-(trifluoromethyl)-1H-pyrazol-4-yl)-3,4-dihydroisoquinolin-1(2H)-one], in assay [1] (setting [3]), the GI50 came to 457 nM. In addition, the Ki in assay [2] is 0.057 nM.

In the case of `CCc1cc(OC)c2nc(C)cc(N3CCc4c(cc(Cn5ccnc5)cc4-c4cn(C)nc4C(F)(F)F)C3=O)c2c1` [Example 120, 7-((1H-Imidazol-1-yl)methyl)-2-(6-ethyl-8-methoxy-2-methylquinolin-4-yl)-5-(1-methyl-3-(trifluoromethyl)-1H-pyrazol-4-yl)-3,4-dihydroisoquinolin-1(2H)-one], in assay [1] (setting [3]), the GI50 is under 20 nM. Also, the inhibitory constant (Ki) in assay [2] is 0.023 nM.

Turning to `COc1ccc2nc(C)cc(N3CCc4c(cc(Cn5ccnc5N)cc4-c4cn(C)nc4C(F)(F)F)C3=O)c2c1` [Example 121, 7-((2-Amino-1H-imidazol-1-yl)methyl)-2-(6-methoxy-2-methylquinolin-4-yl)-5-(1-methyl-3-(trifluoromethyl)-1-1H-pyrazol-4-yl)-3,4-dihydroisoquinolin-1(2H)-one], in assay [1] (setting [3]), the GI50 was under 20 nM. Further, in assay [2], the Ki is 0.023 nM.

On to `COc1cc(OC)c2cncc(N3CCc4c(cc(Cn5ccnc5)cc4-c4cn(C)nc4C(F)(F)F)C3=O)c2c1` [Example 122, 7-((1H-Imidazol-1-yl)methyl)-6′,8′-dimethoxy-5-(1-methyl-3-(trifluoromethyl)-1H-pyrazol-4-yl)-3,4-dihydro-1H-[2,4′-biisoquinolin]-1-one], for which, in assay [1] (setting [3]), the GI50 turned out to be 27 nM. For the same compound, the Ki in assay [2] was 0.052 nM.

With `COc1cc(N2CCN(C)CC2)c2cncc(N3CCc4c(cc(Cn5ccnc5)cc4-c4cn(C)nc4C(F)(F)F)C3=O)c2c1` [Example 123, 7-((1H-Imidazol-1-yl)methyl)-6′-methoxy-5-(1-methyl-3-(trifluoromethyl)-1H-pyrazol-4-yl)-8′-(4-methylpiperazin-1-yl)-3,4-dihydro-1H-[2,4′-biisoquinolin]-1-one], the GI50 in assay [1] (setting [3]) is under 20 nM. In addition, in assay [2], the Ki amounted to 0.04 nM.

Turning to `CCc1cc(N2CCN3CCOC[C@H]3C2)c2nc(C)cc(N3CCc4c(cc(Cn5ccnc5)cc4-c4cn(C)nc4C(F)(F)F)C3=O)c2c1` [Example 124, (R)-7-((1H-Imidazol-1-yl)methyl)-2-(6-ethyl-8-(hexahydropyrazino[2,1-c][1,4]oxazin-8(1H)-yl)-2-methylquinolin-4-yl)-5-(1-methyl-3-(trifluoromethyl)-1H-pyrazol-4-yl)-3,4-dihydroisoquinolin-1(2H)-one], the GI50 in assay [1] (setting [3]) is under 20 nM. The Ki in assay [2] is 0.03 nM.

Turning to `COc1cc(CN2CCN(C(C)=O)CC2)c2nccc(N3CCc4c(cc(Cn5ccnc5)cc4-c4cn(C)nc4C(F)(F)F)C3=O)c2c1` [Example 127, 7-((1H-Imidazol-1-yl)methyl)-2-(8-((4-acetylpiperazin-1-yl)methyl)-6-methoxyquinolin-4-yl)-5-(1-methyl-3-(trifluoromethyl)-1H-pyrazol-4-yl)-3,4-dihydroisoquinolin-1(2H)-one], the GI50 in assay [1] (setting [3]) is under 20 nM. Moreover, in assay [2], the Ki came to 0.021 nM.

Take `COc1cc(CN2CCCCC2)c2nccc(N3CCc4c(cc(Cn5ccnc5)cc4-c4cn(C)nc4C(F)(F)F)C3=O)c2c1` [Example 128]: the GI50 in assay [1] was under 20 nM. Also, in assay [2], the Ki worked out at 0.038 nM.

Turning to `CCc1cnc2cc(C)cc(N3CCc4c(cc(Cn5ccnc5)cc4-c4cn(C)nc4C(F)(F)F)C3=O)c2c1` [Example 129, 7-((1H-Imidazol-1-yl)methyl)-2-(3-ethyl-7-methylquinolin-5-yl)-5-(1-methyl-3-(trifluoromethyl)-1H-pyrazol-4-yl)-3,4-dihydroisoquinolin-1(2H)-one], the GI50 in assay [1] stood at 35 nM. Moreover, the Ki in assay [2] stood at 0.029 nM.

For the compound `Cn1cc(-c2cc(Cn3ccnc3)cc3c2CCN(c2cccc4ncc(C5CC5)cc24)C3=O)c(C(F)(F)F)n1` [Example 130, 7-((1H-Imidazol-1-yl)methyl)-2-(3-cyclopropylquinolin-5-yl)-5-(1-methyl-3-(trifluoromethyl)-1H-pyrazol-4-yl)-3,4-dihydroisoquinolin-1(2H)-one], the GI50 in assay [1] worked out at 218 nM. The Ki in assay [2] is 0.051 nM.

Take `COc1cc(CN2CCN(C)C(=O)C2)c2nccc(N3CCc4c(cc(Cn5ccnc5)cc4-c4cn(C)nc4C(F)(F)F)C3=O)c2c1` [Example 131, 7-((1H-Imidazol-1-yl)methyl)-2-(6-methoxy-8-((4-methyl-3-oxopiperazin-1-yl)methyl)quinolin-4-yl)-5-(1-methyl-3-(trifluoromethyl)-1H-pyrazol-4-yl)-3,4-dihydroisoquinolin-1(2H)-one]: the GI50 in assay [1] (setting [3]) is under 20 nM. Further, the Ki in assay [2] came to 0.043 nM.

Take `CCc1cc(N2CCN(C3COC3)CC2)c2nc(C)cc(N3CCc4c(cc(Cn5ccnc5)cc4-c4cn(C)nc4C(F)(F)F)C3=O)c2c1` [Example 132, 7-((1H-Imidazol-1-yl)methyl)-2-(6-ethyl-2-methyl-8-(4-(oxetan-3-yl)piperazin-1-yl)quinolin-4-yl)-5-(1-methyl-3-(trifluoromethyl)-1H-pyrazol-4-yl)-3,4-dihydroisoquinolin-1(2H)-one]: in assay [1] (setting [3]), the GI50 is under 20 nM. Further, in assay [2], the Ki came to 0.03 nM.

Take `COc1cc(CN2CCOCC2)c2nccc(N3CCc4c(cc(Cn5ccnc5)cc4-c4cn(C)nc4C(F)(F)F)C3=O)c2c1` [Example 133, 7-((1H-Imidazol-1-yl)methyl)-2-(6-methoxy-8-(morpholinomethyl)quinolin-4-yl)-5-(1-methyl-3-(trifluoromethyl)-1H-pyrazol-4-yl)-3,4-dihydroisoquinolin-1(2H)-one]: the GI50 in assay [1] (setting [3]) is under 20 nM. For the same compound, in assay [2], the Ki is 0.035 nM.

Consider `CCc1cc(N2CCN3CCOC[C@@H]3C2)c2nc(C)cc(N3CCc4c(cc(Cn5ccnc5)cc4-c4cn(C)nc4C(F)(F)F)C3=O)c2c1` [Example 134, (S)-7-((1H-imidazol-1-yl)methyl)-2-(6-ethyl-8-(hexahydropyrazino[2,1-c][1,4]oxazin-8(1H)-yl)-2-methylquinolin-4-yl)-5-(1-methyl-3-(trifluoromethyl)-1H-pyrazol-4-yl)-3,4-dihydroisoquinolin-1(2H)-one], for which the GI50 in assay [1] (setting [3]) was under 20 nM. Also, the Ki in assay [2] was found to be 0.03 nM.

Turning to `COc1cc(CN2CCN(C)CC2)c2nccc(N3CCc4c(cc(Cn5ccnc5)cc4-c4cn(C)nc4C(F)(F)F)C3=O)c2c1` [Example 135, 7-((1H-Imidazol-1-yl)methyl)-2-(6-methoxy-8-((4-methylpiperazin-1-yl)methyl)quinolin-4-yl)-5-(1-methyl-3-(trifluoromethyl)-1H-pyrazol-4-yl)-3,4-dihydroisoquinolin-1(2H)-one], the GI50 in assay [1] (setting [3]) was under 20 nM. Moreover, the inhibition constant (Ki) in assay [2] came to 0.04 nM.

Take `COCc1cc(OC)cc2c(N3CCc4c(cc(Cn5ccnc5)cc4-c4cn(C)nc4C(F)(F)F)C3=O)ccnc12` [Example 136, 7-((1H-Imidazol-1-yl)methyl)-2-(6-methoxy-8-(methoxymethyl)quinolin-4-yl)-5-(1-methyl-3-(trifluoromethyl)-1H-pyrazol-4-yl)-3,4-dihydroisoquinolin-1(2H)-one]: the GI50 in assay [1] (setting [3]) is under 20 nM. The Ki in assay [2] was under 0.02 nM.

With `COc1cc(CN2CCCC2)c2nccc(N3CCc4c(cc(Cn5ccnc5)cc4-c4cn(C)nc4C(F)(F)F)C3=O)c2c1` [Example 138, 7-((1H-Imidazol-1-yl)methyl)-2-(6-methoxy-8-(pyrrolidin-1-ylmethyl)quinolin-4-yl)-5-(1-methyl-3-(trifluoromethyl)-1H-pyrazol-4-yl)-3,4-dihydroisoquinolin-1(2H)-one], in assay [1] (setting [3]), the GI50 was under 20 nM. Moreover, the inhibition constant (Ki) in assay [2] was under 0.02 nM.

Turning to `COc1cc(Cn2ccnc2)c2nccc(N3CCc4c(cc(Cn5ccnc5)cc4-c4cn(C)nc4C(F)(F)F)C3=O)c2c1` [Example 139, 7-((1H-imidazol-1-yl)methyl)-2-(8-((1H-imidazol-1-yl)methyl)-6-methoxyquinolin-4-yl)-5-(1-methyl-3-(trifluoromethyl)-1H-pyrazol-4-yl)-3,4-dihydroisoquinolin-1(2H)-one], the GI50 in assay [1] (setting [3]) was under 20 nM. Besides, the Ki in assay [2] is under 0.02 nM.

On to `CCc1cc(OCCOC)c2nccc(N3CCc4c(cc(Cn5ccnc5)cc4-c4cn(C)nc4C(F)(F)F)C3=O)c2c1` [Example 140, 7-((1H-Imidazol-1-yl)methyl)-2-(6-ethyl-8-(2-methoxyethoxy)quinolin-4-yl)-5-(1-methyl-3-(trifluoromethyl)-1H-pyrazol-4-yl)-3,4-dihydroisoquinolin-1(2H)-one], for which the GI50 in assay [1] (setting [3]) was under 20 nM. For the same compound, in assay [2], the inhibition constant Ki was under 0.02 nM.

In the case of `COc1cc(CN2CCN3CCOC[C@@H]3C2)c2nccc(N3CCc4c(cc(Cn5ccnc5)cc4-c4cn(C)nc4C(F)(F)F)C3=O)c2c1` [Example 141, (S)-7-((1H-Imidazol-1-yl)methyl)-2-(8-((hexahydropyrazino[2,1-c][1,4]oxazin-8(1H)-yl)methyl)-6-methoxyquinolin-4-yl)-5-(1-methyl-3-(trifluoromethyl)-1H-pyrazol-4-yl)-3,4-dihydroisoquinolin-1(2H)-one], the GI50 in assay [1] (setting [3]) was under 20 nM. In addition, the Ki in assay [2] was determined as 0.07 nM.

As for `COc1cc(CN2CCC(OC)CC2)c2nccc(N3CCc4c(cc(Cn5ccnc5)cc4-c4cn(C)nc4C(F)(F)F)C3=O)c2c1` [Example 142, 7-((1H-Imidazol-1-yl)methyl)-2-(6-methoxy-8-((4-methoxypiperidin-1-yl)methyl)quinolin-4-yl)-5-(1-methyl-3-(trifluoromethyl)-1H-pyrazol-4-yl)-3,4-dihydroisoquinolin-1(2H)-one], in assay [1] (setting [3]), the GI50 is under 20 nM. Also, in assay [2], the Ki is 0.036 nM.

One may read the Ki as a measure of affinity in units of concentration, obtained from inhibition or displacement.
